Assay results: US5607937A, “Piperazides of substituted phenylalanine derivatives as thrombin inhibitors” (priority 1993, dated 1997)
Like-named read-outs stand apart in the source and are kept apart here.

Tests used:
plasma kallikrein = plasma kallikrein (Homo sapiens, UniProt P03952); assay: inhibition of plasma kallikrein, dissociation constant Ki; settings: read-out: Ki, Plasma kallikr.; Table 1
tPA = tPA (Homo sapiens, UniProt P00750); assay: inhibition of tPA, dissociation constant Ki; settings: read-out: Ki, tPA; Table 1
[1] = tested on: coagulation in human plasma; assay: thrombin time (TT) in human plasma
[2] = tested on: coagulation in human plasma; assay: prothrombin time (PT, Quick value) in human plasma
thrombin [3] = target: thrombin (Bos taurus, UniProt P00735)
plasmin = plasmin (Homo sapiens, UniProt P00747); assay: inhibition of plasmin, dissociation constant Ki; settings: read-out: Ki, Plasmin; Table 1
glandular kallikrein = glandular kallikrein (Sus scrofa, UniProt P00752); assay: inhibition of glandular kallikrein, dissociation constant Ki; settings: read-out: Ki, Gland. kallikr.; Table 1
factor Xa = factor Xa (Bos taurus, UniProt P00743); assay: inhibition of factor Xa, dissociation constant Ki; format: biochemical; settings: Table 1
Experimental: (§1) The biological activity of the compounds of the present invention was determined in vitro as well as in vivo.

trypsin [4] = target: T1, trypsin (Bos taurus, UniProt P00760); assay: inhibition of trypsin, dissociation constant Ki; format: biochemical; set-up: thrombin and the related enzymes trypsin, plasmin, factor Xa, factor XIIa; settings: Table 1; read-out: Ki, Trypsin
T1 sequence (P00760 24-246): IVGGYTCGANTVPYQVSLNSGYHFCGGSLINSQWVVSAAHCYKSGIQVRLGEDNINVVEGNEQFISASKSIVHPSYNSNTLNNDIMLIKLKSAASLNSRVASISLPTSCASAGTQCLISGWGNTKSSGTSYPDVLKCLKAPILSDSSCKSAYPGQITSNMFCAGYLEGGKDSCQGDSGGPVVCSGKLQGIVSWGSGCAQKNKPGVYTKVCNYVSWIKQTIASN
Experimental: as §1

factor XIIa = target: T2, factor XIIa (Homo sapiens, UniProt P00748); assay: inhibition of factor XIIa, dissociation constant Ki; settings: read-out: Ki, Factor XIIa; Table 1
T2 sequence (P00748 373-615 limits assumed): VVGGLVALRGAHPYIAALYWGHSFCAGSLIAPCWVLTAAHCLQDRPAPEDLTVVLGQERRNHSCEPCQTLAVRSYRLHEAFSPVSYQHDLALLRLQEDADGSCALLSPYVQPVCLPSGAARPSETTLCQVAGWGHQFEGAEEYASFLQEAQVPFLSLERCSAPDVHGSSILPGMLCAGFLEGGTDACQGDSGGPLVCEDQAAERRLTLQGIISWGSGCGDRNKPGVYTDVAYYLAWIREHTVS

[5] = tested on: coagulation in human plasma; assay: activated partial thromboplastin time (aPTT) in human plasma
thrombin [6] = target: thrombin (Homo sapiens, UniProt P00734); settings: literature; cited from earlier work
trypsin [7] = target: T1, trypsin; settings: literature; cited from earlier work
[8] = read-out: Ki, Thrombin, Table 1
[9] = read-out: Thrombin inhibition Ki, Table 7

Sequence of glandular kallikrein (P00752 8-246): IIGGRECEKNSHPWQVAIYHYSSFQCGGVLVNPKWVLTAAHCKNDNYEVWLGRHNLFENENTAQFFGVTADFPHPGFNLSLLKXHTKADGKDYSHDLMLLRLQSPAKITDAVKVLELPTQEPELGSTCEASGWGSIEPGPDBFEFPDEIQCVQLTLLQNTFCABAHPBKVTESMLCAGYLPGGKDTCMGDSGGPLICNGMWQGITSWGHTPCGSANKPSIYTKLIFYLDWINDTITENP
Sequence of factor Xa (P00743 234-492 limits assumed): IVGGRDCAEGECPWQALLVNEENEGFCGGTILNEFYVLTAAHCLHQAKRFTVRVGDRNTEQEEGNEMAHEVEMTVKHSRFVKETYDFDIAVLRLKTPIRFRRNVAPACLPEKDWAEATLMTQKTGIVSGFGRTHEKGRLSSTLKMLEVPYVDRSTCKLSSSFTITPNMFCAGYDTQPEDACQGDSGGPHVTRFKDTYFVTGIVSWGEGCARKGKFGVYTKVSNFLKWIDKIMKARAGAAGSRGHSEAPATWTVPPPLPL
Sequence of factor Xa (P00743 41-180 partner limits assumed): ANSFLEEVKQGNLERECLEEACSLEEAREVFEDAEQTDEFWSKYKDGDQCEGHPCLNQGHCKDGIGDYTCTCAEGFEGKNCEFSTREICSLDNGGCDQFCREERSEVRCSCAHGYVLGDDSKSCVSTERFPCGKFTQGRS
Sequence of tPA (P00750 36-562): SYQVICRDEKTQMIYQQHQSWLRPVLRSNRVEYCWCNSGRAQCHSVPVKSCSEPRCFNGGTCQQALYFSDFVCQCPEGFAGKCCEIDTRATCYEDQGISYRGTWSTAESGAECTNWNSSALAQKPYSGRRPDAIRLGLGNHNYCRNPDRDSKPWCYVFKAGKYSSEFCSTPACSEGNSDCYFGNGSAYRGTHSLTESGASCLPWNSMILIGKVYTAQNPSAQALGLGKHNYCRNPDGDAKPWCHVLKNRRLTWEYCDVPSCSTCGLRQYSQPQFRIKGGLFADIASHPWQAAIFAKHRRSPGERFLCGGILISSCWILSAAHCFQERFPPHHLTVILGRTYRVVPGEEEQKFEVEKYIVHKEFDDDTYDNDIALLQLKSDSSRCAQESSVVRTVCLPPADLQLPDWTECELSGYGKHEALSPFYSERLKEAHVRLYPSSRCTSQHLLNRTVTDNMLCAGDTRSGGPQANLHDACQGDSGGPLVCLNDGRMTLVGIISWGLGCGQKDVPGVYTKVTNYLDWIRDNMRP
Sequence of plasma kallikrein (P03952 391-638 limits assumed, species assumed): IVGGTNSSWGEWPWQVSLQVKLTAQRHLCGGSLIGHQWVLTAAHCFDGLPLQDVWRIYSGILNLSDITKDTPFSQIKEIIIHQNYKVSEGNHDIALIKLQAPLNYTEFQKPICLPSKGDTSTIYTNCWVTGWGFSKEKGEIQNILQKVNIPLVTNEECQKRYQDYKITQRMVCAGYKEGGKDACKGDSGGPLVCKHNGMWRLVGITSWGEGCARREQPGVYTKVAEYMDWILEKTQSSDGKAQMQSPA
Sequence of plasma kallikrein (P03952 20-390 partner limits assumed, species assumed): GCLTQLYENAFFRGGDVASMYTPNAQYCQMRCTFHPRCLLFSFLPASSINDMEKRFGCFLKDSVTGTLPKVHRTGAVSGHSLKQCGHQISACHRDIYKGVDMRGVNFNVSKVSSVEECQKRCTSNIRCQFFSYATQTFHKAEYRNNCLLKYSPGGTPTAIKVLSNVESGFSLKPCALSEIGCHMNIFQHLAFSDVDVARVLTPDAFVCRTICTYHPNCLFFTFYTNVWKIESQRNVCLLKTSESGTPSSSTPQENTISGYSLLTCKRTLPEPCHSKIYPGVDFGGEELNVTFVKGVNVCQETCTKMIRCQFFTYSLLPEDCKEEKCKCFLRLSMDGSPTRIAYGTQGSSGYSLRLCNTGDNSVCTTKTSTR
Sequence of plasmin (P00747 581-810 limits assumed): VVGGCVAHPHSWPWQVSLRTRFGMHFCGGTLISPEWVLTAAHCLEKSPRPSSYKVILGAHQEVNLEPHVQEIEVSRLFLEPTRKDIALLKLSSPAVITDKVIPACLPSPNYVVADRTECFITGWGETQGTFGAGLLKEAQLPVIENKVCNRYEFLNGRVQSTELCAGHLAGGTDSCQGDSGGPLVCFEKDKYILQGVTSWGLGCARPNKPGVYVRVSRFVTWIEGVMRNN
Sequence of plasmin (P00747 97-580 partner limits assumed): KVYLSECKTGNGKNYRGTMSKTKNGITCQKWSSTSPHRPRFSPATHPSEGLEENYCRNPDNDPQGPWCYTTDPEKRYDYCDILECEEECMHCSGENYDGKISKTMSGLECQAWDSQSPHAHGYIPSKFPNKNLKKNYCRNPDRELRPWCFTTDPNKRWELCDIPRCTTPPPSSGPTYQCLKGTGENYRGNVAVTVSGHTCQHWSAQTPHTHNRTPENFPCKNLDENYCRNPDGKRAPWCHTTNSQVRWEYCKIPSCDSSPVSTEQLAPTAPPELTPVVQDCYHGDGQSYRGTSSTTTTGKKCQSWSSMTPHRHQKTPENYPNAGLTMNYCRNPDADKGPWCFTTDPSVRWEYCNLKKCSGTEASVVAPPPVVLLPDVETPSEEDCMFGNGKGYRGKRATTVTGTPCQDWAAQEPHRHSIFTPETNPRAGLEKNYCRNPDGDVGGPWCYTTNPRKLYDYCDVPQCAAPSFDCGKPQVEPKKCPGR

Ki (plasma kallikrein) [µM] | Ki (tPA) [µM] | Ki (thrombin [3]; [8]) [µM] | Ki (thrombin [3]; [9]) [µM] | Ki (plasmin) [µM] | Ki (glandular kallikrein) [µM] | Ki (factor Xa) [µM] | Ki (trypsin [4]) [µM] | Ki (factor XIIa) [µM] | SMILES | Concentr. to double the Thrombin time [1] [µmol/L] | concentration to double the TT [1] | Concentr. to double the Prothrombin time [2] [µmol/L] | concentration to double the PT [2] [μmol/1] | Concentr. to double the aPTT [5] [µmol/L] | concentration to double the aPTT [5] [μmol/1] | thrombin inhibition in words (thrombin [6]) | trypsin-inhibiting activity in words (trypsin [7])
25 | 20 | 0.012 | 0.012 | 14 | > 1000 | 1.1 | 0.22 | 61 | CC1(C)C2CCC1(CS(=O)(=O)N[C@@H](Cc1cccc(C(=N)N)c1)C(=O)N1CCN(S(C)(=O)=O)CC1)C(=O)C2 (single isomer, unassigned) [Compound 7] | 0.075 | less than 10^-7 mol/1 | 1.0 | ≤ 1 | 0.55 | ≤ 1 |  | 
130 | 82 | 0.031 | 0.031 | 29 | > 1000 | 6.7 | 0.44 | 70 | CC1(C)C2CCC1(CS(=O)(=O)N[C@@H](Cc1cccc(C(=N)N)c1)C(=O)N1CCN(S(C)(=O)=O)CC1)C(=O)C2 (single isomer, unassigned) [Compound 8] | 0.13 |  | 2.0 |  | 1.2 |  |  | 
 |  |  |  |  |  |  |  |  | CC(C)(C)OC(=O)NC(Cc1ccccc1)C(=O)N1CCCC1C(=O)NC(CCCNC(=N)N)B1OC2CC3CC(C3(C)C)C2(C)O1 [Boc-D-Phe-Pro-Boro-Arg-C10 H16] |  |  |  |  |  |  | inhibited in a time-dependent reaction | inhibited in a time-dependent reaction
 |  |  |  |  |  |  |  |  | CC1CNc2c(cccc2S(=O)(=O)N[C@@H](CCCN=C(N)N)C(=O)N2CC[C@@H](C)C[C@@H]2C(=O)O)C1 (stereo partly drawn) [(2R,4R)-4-methyl-1-[Nα-(3-methyl-1,2,3,5-tetrahydro-8-quinolinesulfonyl)-L-arginine]-2-pipecoline-carboxylic acid] |  |  |  |  |  |  |  | practically no trypsin-inhibiting activity
